Experimental findings from ChEMBL document CHEMBL3351880, “Unexpected DNA affinity and sequence selectivity through core rigidity in guanidinium-based minor groove binders” (J Med Chem, 2014) are described below.

Experiment [1] has as its system Salmonidae. Nature of the experiment: Binding affinity to salmon sperm DNA assessed as increase in DNA thermal melting temperature at 15 uM spectrophotometry.
Experiment [2] deals with Salmonidae. Nature of the experiment: Binding affinity to salmon sperm DNA assessed as change in ICD signals by CD spectroscopy.
Experiment [3] can be described thus: Binding affinity to poly(dA.dT)2 oligonucleotide DNA (unknown origin) assessed as change in ICD signals by CD spectroscopy.
Experiment [4] in a line: Binding affinity to poly(dA).poly(dT) oligonucleotide DNA (unknown origin) assessed as increase in DNA thermal melting temperature at 15 uM spectrophotometry.
Experiment [5] is described as follows: Binding affinity to poly(dA.dT)2 oligonucleotide DNA (unknown origin) assessed as increase in DNA thermal melting temperature at 15 uM spectrophotometry.
A short description of experiment [6]: Binding affinity to AATT DNA hairpin sequence (unknown origin) by SPR assay. Background: Surface plasmon resonance follows binding to a sensor surface in real time, without labels.
A short description of experiment [7]: Selectivity index, ratio of binding affinity to (AT)4 DNA hairpin sequence (unknown origin) to binding affinity to AATT DNA hairpin sequence (unknown origin).
Experiment [8] can be described thus: Binding affinity to (AT)4 DNA hairpin sequence (unknown origin) by SPR assay.
Experiment [9] relates to Salmonidae. Nature of the experiment: Binding affinity to salmon sperm DNA by UV spectroscopy.
Experiment [10] is described as follows: Binding affinity to poly(dG.dC)2 oligonucleotide DNA (unknown origin) by UV spectroscopy.
A short description of experiment [11]: Binding affinity to poly(dA.dT)2 oligonucleotide DNA (unknown origin) by UV spectroscopy.
Experiment [12] can be described thus: Binding affinity to (CG)4 DNA hairpin sequence (unknown origin) by SPR assay.
The nature of experiment [13]: Binding affinity to poly(dG.dC)2 oligonucleotide DNA (unknown origin) assessed as change in ICD signals by CD spectroscopy.

Active and inactive are the calls of the source. No cut-off for these calls is given here.

Regarding `N=C(N)Nc1ccc2c(c1)Cc1ccc(NC(=N)N)cc1C2`, the ΔTm in the experiment with Salmonidae [1] is 4 °C; in experiment [4] it was 4 °C; in experiment [5], -3 °C. For the same compound, the result (in the experiment on Salmonidae [2]; in experiment [3]) was inactive.

Consider `c1cc2c(cc1NC1=NCCN1)Cc1ccc(NC3=NCCN3)cc1-2`, for which the K was found to be 15 ×10⁵ /M in [6]; 36.2 ×10⁵ /M in experiment [8]; 1.9 ×10⁵ /M with Salmonidae [9]; 9.2 ×10⁵ /M in experiment [10]; 14 ×10⁵ /M in experiment [11]; 6.5 ×10⁵ /M in [12]. In experiment [7], the Selectivity Index is less than 2.4. For the same compound, the results for the ΔTm (in the experiment with Salmonidae [1]; in experiment [4]; in [5]) were 9 °C, 31 °C and 26 °C, respectively. Further, the result (in the experiment with Salmonidae [2]; in experiment [3]) was Active.

For `N=C(N)Nc1ccc2c(c1)Cc1ccc(NC3=NCCN3)cc1-2`, the thermal shift (ΔTm) with Salmonidae [1] came to 4 °C; in experiment [4], 20 °C; in experiment [5], 22 °C. Besides, the result (in the experiment on Salmonidae [2]; in experiment [3]; in experiment [13]) was Active.

Take `c1cc(C2CCN(c3ccc(NC4=NCCN4)cc3)CC2)ccc1NC1=NCCN1`: the K in [6] was determined as 1.1 ×10⁵ /M; in experiment [8] it was 1.4 ×10⁵ /M; in [12], 1.5 ×10⁵ /M. Also, in [7], the Selectivity Index was less than 2.4.

As to `Nc1ccc2cc3ccc(N)cc3nc2c1`, the K in [6] worked out at 5.7 ×10⁵ /M; in experiment [8], 12.2 ×10⁵ /M; in [12] it was 6.5 ×10⁵ /M. In addition, in experiment [7], the Selectivity Index was less than 2.4.

Take `c1cc2c(cc1NC1=NCCN1)Cc1ccc(NC3=NCCN3)cc1C2`: the K in experiment [6] amounted to 2.7 ×10⁵ /M; in experiment [8], 5.1 ×10⁵ /M; in [12], 5.5 ×10⁵ /M. Also, the Selectivity Index in experiment [7] was less than 2.4. Moreover, the ΔTm in the experiment on Salmonidae [1] is 20 °C; in [4] it was 12 °C; in experiment [5] it was 1 °C. Moreover, the result (with Salmonidae [2]; in [3]) was inactive.

Consider `c1cc(NC2=NCCN2)cc(Oc2ccc(NC3=NCCN3)cc2)c1`, for which the K in experiment [6] is less than 1 ×10⁵ /M; in experiment [8], 1.5 ×10⁵ /M; in [12], less than 1 ×10⁵ /M. Further, the Selectivity Index in experiment [7] was less than 2.4.

For the compound `c1cc(NC2=NCCN2)cc(Sc2ccc(NC3=NCCN3)cc2)c1`, the figures for the K in [6], in [8] and in experiment [12] were 1.6 ×10⁵ /M, 3.2 ×10⁵ /M and 2.5 ×10⁵ /M, respectively. In addition, the Selectivity Index in [7] is less than 2.4.

For `c1cc(NC2=NCCN2)ccc1CCc1ccc(NC2=NCCN2)cc1`, the figures for the K in experiment [6], in experiment [8] and in experiment [12] were less than 1 ×10⁵ /M, 1 ×10⁵ /M and less than 1 ×10⁵ /M, respectively. Further, the Selectivity Index in experiment [7] was less than 2.4.

By ΔTm is commonly meant the shift of the melting midpoint relative to a reference.
